Key:
Assay in all cases: radiometric filter-binding kinase assay, Kinase HotSpot
Details in all cases: compound 0.5 µM; ATP 10 µM
[1] = biological target: CDK1 CCNA2 (human) (UniProt P06493+P20248)
[2] = biological target: CDK1 CCNB1 (human) (UniProt P06493+P14635)
[3] = biological target: CDK2 CCNA2 (human) (UniProt P24941+P20248)
[4] = biological target: CDK2 CCNE1 (human) (UniProt P24941+P24864)
[5] = biological target: CDK3 CCNE1 (human) (UniProt Q00526+P24864)
[6] = biological target: CDK4 CCND1 (human) (UniProt P24385+P11802)
[7] = biological target: CDK4 CCND3 (human) (UniProt P30281+P11802)
[8] = biological target: CDK5 CDK5R1 p25 (human) (UniProt Q00535+Q15078)
[9] = biological target: CDK5 CDK5R1 p35 (human) (UniProt Q00535+Q15078)
[10] = biological target: CDK6 CCND1 (human) (UniProt Q00534+P24385)
[11] = biological target: CDK6 CCND3 (human) (UniProt P30281+Q00534)
[12] = biological target: CDK7 CCNH MNAT1 (human) (UniProt P50613+P51948+P51946)
[13] = biological target: CDK9 CCNK (human) (UniProt O75909+P50750)
[14] = biological target: CDK9 CCNT1 (human) (UniProt P50750+O60563)
[15] = biological target: DYRK1B (human) (UniProt Q9Y463)
[16] = biological target: LTK (human) (UniProt P29376)
[17] = biological target: MAP3K7 TAB1 (human) (UniProt O43318+Q15750)
[18] = biological target: PRKCH (human) (UniProt P24723)
[19] = biological target: STK33 (human) (UniProt Q9BYT3)
[20] = system: SGK1 (human), O00141 [S422D]
Sequence of SGK1 (human), O00141 [S422D] (O00141 whole entry S422D, looked up): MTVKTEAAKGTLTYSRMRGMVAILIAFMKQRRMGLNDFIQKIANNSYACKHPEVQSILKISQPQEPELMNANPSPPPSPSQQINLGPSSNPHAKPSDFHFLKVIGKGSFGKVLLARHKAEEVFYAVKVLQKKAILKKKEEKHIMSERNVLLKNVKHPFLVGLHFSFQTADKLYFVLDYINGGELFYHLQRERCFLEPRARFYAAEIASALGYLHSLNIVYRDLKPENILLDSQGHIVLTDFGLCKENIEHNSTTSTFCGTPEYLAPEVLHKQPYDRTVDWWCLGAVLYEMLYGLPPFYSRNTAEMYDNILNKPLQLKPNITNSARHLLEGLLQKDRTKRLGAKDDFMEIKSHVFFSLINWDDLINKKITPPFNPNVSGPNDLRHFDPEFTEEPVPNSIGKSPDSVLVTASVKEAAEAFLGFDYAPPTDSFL

Sequence of LTK (human) (P29376 whole entry, looked up): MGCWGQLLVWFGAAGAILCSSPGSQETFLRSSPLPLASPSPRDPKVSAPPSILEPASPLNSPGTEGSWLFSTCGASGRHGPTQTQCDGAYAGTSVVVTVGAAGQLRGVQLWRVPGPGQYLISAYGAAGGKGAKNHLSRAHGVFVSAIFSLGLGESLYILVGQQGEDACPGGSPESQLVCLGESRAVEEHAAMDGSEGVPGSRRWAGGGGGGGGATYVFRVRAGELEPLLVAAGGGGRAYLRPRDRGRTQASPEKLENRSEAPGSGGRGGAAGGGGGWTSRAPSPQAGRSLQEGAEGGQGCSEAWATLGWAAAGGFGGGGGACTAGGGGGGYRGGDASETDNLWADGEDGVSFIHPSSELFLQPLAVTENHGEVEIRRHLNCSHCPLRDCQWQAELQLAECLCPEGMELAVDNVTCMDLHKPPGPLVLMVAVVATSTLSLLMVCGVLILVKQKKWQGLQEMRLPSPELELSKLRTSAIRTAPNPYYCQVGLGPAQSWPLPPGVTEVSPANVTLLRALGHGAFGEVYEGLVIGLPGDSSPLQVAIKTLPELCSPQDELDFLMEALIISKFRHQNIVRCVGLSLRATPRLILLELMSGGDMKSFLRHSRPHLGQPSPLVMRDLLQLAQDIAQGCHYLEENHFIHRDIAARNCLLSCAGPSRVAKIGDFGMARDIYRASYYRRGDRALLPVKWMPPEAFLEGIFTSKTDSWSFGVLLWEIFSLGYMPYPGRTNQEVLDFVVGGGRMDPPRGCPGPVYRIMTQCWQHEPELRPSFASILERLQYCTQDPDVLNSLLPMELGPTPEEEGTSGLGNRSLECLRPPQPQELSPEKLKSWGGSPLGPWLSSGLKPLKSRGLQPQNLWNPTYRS
Sequence of MAP3K7 TAB1 (human) (O43318 whole entry, looked up): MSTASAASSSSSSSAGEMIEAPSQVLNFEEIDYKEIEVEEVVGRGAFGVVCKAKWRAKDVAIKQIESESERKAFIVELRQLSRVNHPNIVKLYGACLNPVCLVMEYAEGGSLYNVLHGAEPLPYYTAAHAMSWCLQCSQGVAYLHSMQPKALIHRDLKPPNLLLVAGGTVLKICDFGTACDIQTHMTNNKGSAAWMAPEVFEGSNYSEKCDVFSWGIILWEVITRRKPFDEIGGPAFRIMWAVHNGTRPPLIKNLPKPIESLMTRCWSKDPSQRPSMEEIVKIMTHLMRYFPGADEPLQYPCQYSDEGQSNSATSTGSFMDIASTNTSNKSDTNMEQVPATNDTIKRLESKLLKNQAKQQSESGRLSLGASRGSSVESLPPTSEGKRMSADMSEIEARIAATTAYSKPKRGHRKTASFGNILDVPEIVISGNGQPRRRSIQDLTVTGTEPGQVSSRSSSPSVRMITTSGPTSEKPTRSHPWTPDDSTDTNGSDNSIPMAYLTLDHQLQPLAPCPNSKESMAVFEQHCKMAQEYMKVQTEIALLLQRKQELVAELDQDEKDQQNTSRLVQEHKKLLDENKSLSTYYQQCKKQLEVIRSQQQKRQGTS
Sequence of MAP3K7 TAB1 (human) (Q15750 whole entry, looked up): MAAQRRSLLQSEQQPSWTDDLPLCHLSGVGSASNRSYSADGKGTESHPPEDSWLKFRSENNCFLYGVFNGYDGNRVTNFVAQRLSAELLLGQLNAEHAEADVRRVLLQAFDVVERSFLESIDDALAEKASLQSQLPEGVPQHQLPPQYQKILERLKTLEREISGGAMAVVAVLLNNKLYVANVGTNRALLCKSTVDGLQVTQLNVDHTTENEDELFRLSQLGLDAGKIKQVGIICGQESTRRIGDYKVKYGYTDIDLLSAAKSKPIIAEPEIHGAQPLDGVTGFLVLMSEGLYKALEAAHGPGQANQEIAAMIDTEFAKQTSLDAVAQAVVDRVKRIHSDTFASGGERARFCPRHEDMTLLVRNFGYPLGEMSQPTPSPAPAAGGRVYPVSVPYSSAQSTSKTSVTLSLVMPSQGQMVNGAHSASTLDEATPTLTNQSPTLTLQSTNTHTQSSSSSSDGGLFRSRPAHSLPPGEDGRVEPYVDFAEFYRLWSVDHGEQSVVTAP
Sequence of STK33 (human) (Q9BYT3 whole entry, looked up): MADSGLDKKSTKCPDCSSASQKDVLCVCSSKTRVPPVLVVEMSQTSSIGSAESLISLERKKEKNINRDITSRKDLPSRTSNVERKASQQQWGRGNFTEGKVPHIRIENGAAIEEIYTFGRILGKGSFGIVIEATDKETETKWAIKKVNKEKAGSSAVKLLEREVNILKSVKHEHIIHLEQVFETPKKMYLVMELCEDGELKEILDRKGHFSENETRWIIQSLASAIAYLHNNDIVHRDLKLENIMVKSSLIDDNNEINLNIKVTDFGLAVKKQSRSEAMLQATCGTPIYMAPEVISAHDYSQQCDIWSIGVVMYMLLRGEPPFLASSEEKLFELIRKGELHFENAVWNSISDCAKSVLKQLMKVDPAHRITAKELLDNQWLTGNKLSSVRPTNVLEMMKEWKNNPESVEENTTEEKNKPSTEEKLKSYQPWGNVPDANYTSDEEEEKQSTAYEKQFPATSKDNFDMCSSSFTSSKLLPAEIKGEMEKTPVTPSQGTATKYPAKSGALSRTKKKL
Sequence of CDK4 CCND1 (human) (P11802 whole entry, looked up): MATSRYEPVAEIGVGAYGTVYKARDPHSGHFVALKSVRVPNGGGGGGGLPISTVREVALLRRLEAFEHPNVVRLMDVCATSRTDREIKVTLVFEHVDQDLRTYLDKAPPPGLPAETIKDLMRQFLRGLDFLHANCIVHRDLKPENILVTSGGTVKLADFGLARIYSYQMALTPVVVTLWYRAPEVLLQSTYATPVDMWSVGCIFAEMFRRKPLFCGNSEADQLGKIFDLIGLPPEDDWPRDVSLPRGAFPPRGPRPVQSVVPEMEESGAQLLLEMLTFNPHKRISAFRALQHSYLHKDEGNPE
Sequence of CDK4 CCND1 (human) (P24385 whole entry, looked up): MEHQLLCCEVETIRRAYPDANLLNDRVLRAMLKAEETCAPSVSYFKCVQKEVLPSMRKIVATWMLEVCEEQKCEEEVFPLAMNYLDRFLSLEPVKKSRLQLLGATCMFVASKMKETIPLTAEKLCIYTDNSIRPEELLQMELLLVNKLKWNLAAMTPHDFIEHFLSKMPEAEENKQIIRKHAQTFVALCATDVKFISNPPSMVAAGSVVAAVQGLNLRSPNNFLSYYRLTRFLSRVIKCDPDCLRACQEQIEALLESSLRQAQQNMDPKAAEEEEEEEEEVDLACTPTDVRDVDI
Sequence of CDK4 CCND3 (human) (P11802 whole entry, looked up): as the sequence (P11802 whole entry, looked up) above
Sequence of CDK4 CCND3 (human) (P30281 whole entry, looked up): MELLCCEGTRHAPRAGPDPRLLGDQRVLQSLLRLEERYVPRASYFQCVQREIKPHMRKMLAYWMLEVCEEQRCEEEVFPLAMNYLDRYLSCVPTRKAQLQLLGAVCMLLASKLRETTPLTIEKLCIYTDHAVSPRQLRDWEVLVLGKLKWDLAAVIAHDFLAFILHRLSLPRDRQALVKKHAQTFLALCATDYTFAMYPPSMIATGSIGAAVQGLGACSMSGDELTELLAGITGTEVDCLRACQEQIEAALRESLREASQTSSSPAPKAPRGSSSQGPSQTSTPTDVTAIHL
Sequence of CDK5 CDK5R1 p25 (human) (Q00535 whole entry, looked up): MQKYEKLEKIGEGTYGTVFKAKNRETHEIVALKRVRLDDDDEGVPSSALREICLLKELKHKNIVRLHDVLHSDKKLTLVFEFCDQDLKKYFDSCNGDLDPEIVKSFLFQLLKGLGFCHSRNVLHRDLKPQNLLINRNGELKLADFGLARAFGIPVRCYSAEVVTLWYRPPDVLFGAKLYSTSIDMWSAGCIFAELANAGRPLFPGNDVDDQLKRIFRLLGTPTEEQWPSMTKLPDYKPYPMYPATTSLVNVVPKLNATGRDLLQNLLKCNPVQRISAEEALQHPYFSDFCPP
Sequence of CDK5 CDK5R1 p25 (human) (Q15078 whole entry, looked up): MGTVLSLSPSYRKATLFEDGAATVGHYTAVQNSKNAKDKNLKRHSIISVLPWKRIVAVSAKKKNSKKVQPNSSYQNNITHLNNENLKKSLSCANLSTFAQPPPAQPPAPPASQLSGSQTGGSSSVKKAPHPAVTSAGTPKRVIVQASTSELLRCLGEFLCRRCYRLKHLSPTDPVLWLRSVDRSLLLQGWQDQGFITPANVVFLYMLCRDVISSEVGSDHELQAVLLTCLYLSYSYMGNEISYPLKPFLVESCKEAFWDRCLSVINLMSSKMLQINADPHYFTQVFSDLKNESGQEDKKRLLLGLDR
Sequence of CDK2 CCNE1 (human) (P24864 whole entry, looked up, other chains not shown): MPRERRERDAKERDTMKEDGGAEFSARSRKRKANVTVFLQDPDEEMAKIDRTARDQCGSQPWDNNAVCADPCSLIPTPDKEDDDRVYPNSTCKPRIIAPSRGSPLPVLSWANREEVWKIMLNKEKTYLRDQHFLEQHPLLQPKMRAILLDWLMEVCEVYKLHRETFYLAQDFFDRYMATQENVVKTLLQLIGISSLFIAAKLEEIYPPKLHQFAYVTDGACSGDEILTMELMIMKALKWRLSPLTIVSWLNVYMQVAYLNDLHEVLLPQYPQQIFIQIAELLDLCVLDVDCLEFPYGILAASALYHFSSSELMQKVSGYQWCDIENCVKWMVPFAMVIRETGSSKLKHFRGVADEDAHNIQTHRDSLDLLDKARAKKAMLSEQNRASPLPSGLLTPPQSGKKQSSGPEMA

For `CC(C)(C)n1nc(Cc2cccc3ccccc23)c2c(N)ncnc21`, the residual activity [1] was 94.8%, the residual activity [2] was 107% and the residual activity [3] was 99.4%. The residual activity [4] was 89.6%, the residual activity [5] was 87.8% and the residual activity [6] was 96.7%. The residual activity [7] was 95.8%, the residual activity [8] was 109% and the residual activity [9] was 95.6%. For the same compound, the residual activity [10] was 98.6%, the residual activity [11] was 97.3% and the residual activity [12] was 100%. It also gave a residual activity [13] of 81.4%, a residual activity [14] of 102% and a residual activity [15] of 98.6%. It also gave a residual activity [16] of 98.2%, a residual activity [17] of 99% and a residual activity [18] of 92.1%. For the same compound, the residual activity [19] was 99.7%.
Work on `O=S(=O)(c1cccc2cnccc12)N1CCCNCC1` yielded a residual activity [20] of 96.6%.
With `Cc1nc(-c2ccccc2)c(-c2ccncc2)o1` the residual activity [20] was 99.3%.
In the case of `c1ccc(-c2n[nH]cc2-c2ccnc3ccccc23)nc1`, the residual activity [20] is reported as 103%.
`Oc1ccc(-c2nc(-c3ccc(F)cc3)c(-c3ccncc3)[nH]2)cc1` was tested, and the residual activity [20] was 101%.
`COc1cc2nccc(Oc3ccc(NC(=S)NC(=O)c4ccccc4C)cc3)c2cc1OC` was tested, and the residual activity [20] was 101%.
With `O=C(NC(NC(=S)Nc1ccc(F)c([N+](=O)[O-])c1)C(Cl)(Cl)Cl)C(c1ccccc1)c1ccccc1` (stereo unspecified) the residual activity [20] was 93.1%.
`O=C(CCCc1ccc(-c2ccccc2F)cc1)Nc1ccc(O)cc1` gave a residual activity [20] of 103%.
`COc1ccc(Cl)cc1NC(=O)Nc1cc(C)nc2ccccc12` showed a residual activity [20] of 94.7%.
`CC(=O)c1ccc(N2CCOCC2)cc1O` showed a residual activity [20] of 97.2%.
Work on `Cc1nc2cc3nc(-c4cccs4)cnc3cc2n1C` yielded a residual activity [20] of 95.9%.
Compound `O=C(Nc1cccc(Nc2cc(Nc3cccc(C(F)(F)F)c3)ncn2)c1)C1CC1` has a residual activity [20] of 94.8%.
Work on `COc1ccc2c(c1)/C(=C/c1cnc[nH]1)C(O)=N2` yielded a residual activity [20] of 71.5%.
`O=C1Cc2c([nH]c3ccc(Br)cc23)-c2ccccc2N1` showed a residual activity [20] of 107%.
`N#C/C(=C\c1ccc(O)c(O)c1)C(=O)NCc1ccccc1` was tested, and the residual activity [20] was 103%.
With `O=C1Nc2ccc(Br)cc2/C1=C\c1cc2c([nH]1)CCCC2` the residual activity [20] was 93.4%.
For `Nc1ccc2ncnc(NCCc3ccc(Oc4ccccc4)cc3)c2c1`, the residual activity [20] was 104%.
`CC[n+]1c(/C=C/N(C)c2ccccc2)n(-c2ccccc2)c2ccc(-c3nc4ccccc4s3)cc21` was tested, and the residual activity [20] was 97.2%.

Source: the kinase profiling compilation of Christmann-Franck et al. (2016)
